Key:
Alternaria brassicae = test: In vivo test on Alternaria brassicae (leaf spot of crucifers); conditions: Alternaria brassicae; dose 330 ppm; radish plants sprayed 24 hours before contamination; grading 6 to 7 days after contamination vs control plants; read-out: protection (good (at least 50%) to total)
Method: In Vivo Test on Alternaria brassicae (Leaf Spot of crucifers)
(§1) The active ingredient tested is prepared by potter homogenisation in a concentrated suspension type formulation at 100 g/l. This suspension is then diluted with water to obtain the desired active material concentration.
Radish plants (Pernot variety) in starter cups, sown on a 50/50 peat soil-pozzolana substrate and grown at 18-20° C., are treated at the cotyledon stage by spraying with the aqueous suspension described above.
Plants, used as controls, are treated with an aqueous solution not containing the active material.
After 24 hours, the plants are contaminated by spraying them with an aqueous suspension of Alternaria brassicae spores (40,000 spores per cm^3). The spores are collected from a 12-13-day-old culture.
The contaminated radish plants are incubated for 6-7 days at about 18° C., under a humid atmosphere.
Grading is carried out 6 to 7 days after the contamination, in comparison with the control plants.

Pyrenophora teres = test: In vivo test on Pyrenophora teres (barley net blotch); conditions: Pyrenophora teres, 288 h; dose 330 ppm; barley plants sprayed 24 hours before contamination; grading 12 days after contamination vs control plants; read-out: protection (good (at least 50%) to total)
Method: In Vivo Test on Pyrenophora teres (Barley Net Blotch)
as §1
(§2) Barley plants (Express variety) in starter cups, sown on a 50/50 peat soil-pozzolana substrate and grown at 12° C., are treated at the 1-leaf stage (10 cm tall) by spraying with the aqueous suspension described above. Plants, used as controls, are treated with an aqueous solution not containing the active material.
After 24 hours, the plants are contaminated by spraying them with an aqueous suspension of Pyrenophora teres spores (12,000 spores per ml). The spores are collected from a 12-day-old culture The contaminated barley plants are incubated for 24 hours at about 20° C. and at 100% relative humidity, and then for 12 days at 80% relative humidity.

Botrytis cinerea = test: In vivo test on Botrytis cinerea (cucumber grey mould); conditions: Botrytis cinerea; dose 330 ppm; cucumber plants sprayed 24 hours before contamination; grading 5/7 days after contamination vs control plants; read-out: protection (good (at least 50%) to total)
Method: In Vivo Test on Botrytis cinerea (Cucumber Grey Mould)
as §1
as §2, with “Cucumber” for “Barley”, “(Marketer” for “(Express”, “18-20°” for “12°”, “cotyledon Z11” for “1-leaf”, “stage” for “stage (10 cm tall)”
After 24 hours, the plants are contaminated by depositing drops of an aqueous suspension of Botrytis cinerea spores (150,000 spores per ml) on upper surface of the leaves. The spores are collected from a 15-day-old culture and are suspended in a nutrient solution composed of: • 20 g/L of gelatin • 50 g/L of cane sugar • 2 g/L of NH4NO3 • 1 g/L of KH2PO4
The contaminated cucumber plants are settled for 5/7 days in a climatic room at 15-11° C. (day/night) and at 80% relative humidity.
Grading is carried out 5/7 days after the contamination, in comparison with the control plants. Under these conditions, good (at least 50%) to total protection is observed at a dose of 330 ppm with the following compounds :B-7, B-8, B-13, B-14, C-3, C-12, C-13, C-14, C-15, C-16, D-4, D-5, E-4, H-1, H-2, H-4, H-7, H-9, H-22, J-1, J-2, J-3, J-19, J-31, J-32, J-33, J-34, J-35, J-37, J-39, J-43, J-44, R-1, R-10, R-23, R-24, R-26, R-31, V-1, V-8.

SMILES | pest or weed control at 330 ppm (Alternaria brassicae) | pest or weed control at 330 ppm (Pyrenophora teres) | pest or weed control at 330 ppm (Botrytis cinerea)
O=C(NCCc1ncc(C(F)(F)F)cc1Cl)c1cccnc1 [Compound R-5] | ≥ 50% | – | –
CCn1nc(C)c(Br)c1C(=O)NCCc1ncc(C(F)(F)F)cc1Cl [Compound K-6] | ≥ 50% | ≥ 50% | –
Cc1onc(-c2ccccc2Cl)c1C(=O)NCCc1ncc(C(F)(F)F)cc1Cl [Compound M-4] | ≥ 50% | ≥ 50% | –
O=C(NCCc1ncc(Cl)cc1F)c1sccc1I [Compound C-15] | – | ≥ 50% | ≥ 50%
O=C(NCCc1ncc(C(F)(F)F)cc1Cl)c1ccnn1-c1ccccc1 [Compound K-5] | ≥ 50% | – | –
O=C(NCCc1ncc(C(F)(F)F)cc1Cl)c1cc(-c2ccccc2)oc1C(F)(F)F [Compound B-10] | ≥ 50% | – | –
CS(=O)(=O)c1csc(C(=O)NCCc2ncc(C(F)(F)F)cc2Cl)c1Cl [Compound C-8] | ≥ 50% | – | –
Cc1nc(CCNC(=O)c2sccc2I)c(Cl)cc1Cl [Compound C-21] | ≥ 50% | – | –
Cn1cc(C(=O)NCCc2ccc(Cl)cn2)c(C(F)F)n1 [Compound J-36] | ≥ 50% | ≥ 50% | –
CC(C)(C)c1cc(C(=O)NCCc2ncc(C(F)(F)F)cc2Cl)n(Cc2ccccc2)n1 [Compound K-3] | ≥ 50% | – | –
Cn1ncc(C(=O)NCCc2ncc(C(F)(F)F)cc2Cl)c1Cl [Compound J-6] | ≥ 50% | – | –
Cc1oc(-c2ccccc2)cc1C(=O)NCCc1ncc(C(F)(F)F)cc1Cl [Compound B-5] | ≥ 50% | – | –
O=C(NCCc1ncc(C(F)(F)F)cc1Cl)c1ccnc(Cl)c1 [Compound S-5] | ≥ 50% | – | –
O=C(NCCc1ncc(C(F)(F)F)cc1Cl)c1cnn(-c2ccccc2)c1C(F)(F)F [Compound J-4] | ≥ 50% | – | –
Cc1nn(C)c(F)c1C(=O)NCCc1ncc(Cl)cc1F [Compound J-49] | ≥ 50% | ≥ 50% | –
O=C(NCCc1nc(Cl)ccc1Cl)c1sccc1I [Compound C-18] | ≥ 50% | – | –
O=C(NCCc1ncc(C(F)(F)F)cc1Cl)c1nc(Cl)ccc1Cl [Compound Q-2] | ≥ 50% | – | –
Cn1cc(C(=O)NCCc2nc(F)c(Cl)cc2Cl)c(C(F)(F)F)n1 [Compound J-26] | ≥ 50% | ≥ 50% | –
O=C(NCCc1ncc(C(F)(F)F)cc1Cl)c1cccnc1Sc1ccccc1 [Compound R-6] | ≥ 50% | – | –

SMILES | pest or weed control at 330 ppm (Alternaria brassicae) | pest or weed control at 330 ppm (Pyrenophora teres) | pest or weed control at 330 ppm (Botrytis cinerea)
Cc1cc(C(=O)NCCc2ncc(C(F)(F)F)cc2Cl)nn1C(C)(C)C [Compound I-1] | ≥ 50% | ≥ 50% | –
O=C(NCCc1ncc(C(F)(F)F)cc1Cl)c1cccnc1Oc1ccc(Cl)cc1 [Compound R-7] | ≥ 50% | – | –
O=C(NCCc1ncc(Cl)cc1F)c1cccnc1Cl [Compound R-24] | ≥ 50% | – | ≥ 50%
O=C(NCCc1nc(F)c(Cl)cc1Cl)c1sccc1I [Compound C-22] | – | ≥ 50% | –
O=C(NCCc1ncc(C(F)(F)F)cc1Cl)c1cnn(-c2ccc(Cl)cc2)c1C(F)(F)F [Compound J-5] | ≥ 50% | – | –
O=C(c1sccc1I)N(CCc1ncc(C(F)(F)F)cc1Cl)C1CC1 [Compound C-20] | – | ≥ 50% | –
O=C(NCCc1nc(F)c(Cl)cc1F)c1sccc1I [Compound C-23] | ≥ 50% | ≥ 50% | –
Cn1ccc(I)c1C(=O)NCCc1ncc(C(F)(F)F)cc1Cl [Compound F-3] | ≥ 50% | ≥ 50% | –
O=C(NCCc1ccc(Cl)cn1)c1sccc1I [Compound C-17] | – | ≥ 50% | –
Cc1nc(CCNC(=O)c2cn(C)nc2C(F)(F)F)c(Cl)cc1Cl [Compound J-25] | ≥ 50% | ≥ 50% | –
Cc1nn(C)c(F)c1C(=O)NCCc1nc(Cl)c(Cl)cc1Cl [Compound J-50] | ≥ 50% | ≥ 50% | –
O=C(NCCc1ncc(C(F)(F)F)cc1Cl)c1sccc1Br [Compound C-5] | ≥ 50% | ≥ 50% | –
O=C(NCCc1ncc(C(F)(F)F)cc1Cl)c1ccno1 [Compound N-1] | ≥ 50% | – | –
O=C(NCCc1ncc(C(F)(F)F)cc1Cl)c1cc(-c2ccc(Cl)cc2)oc1C(F)(F)F [Compound B-2] | ≥ 50% | – | –
Cc1ccccc1-n1ncc(C(=O)NCCc2ncc(C(F)(F)F)cc2Cl)c1C [Compound J-10] | – | ≥ 50% | –
CCCc1c(C(=O)NCCc2ncc(C(F)(F)F)cc2Cl)cnn1-c1ccc(Cl)cc1 [Compound J-12] | ≥ 50% | – | –
Cc1cc(C(=O)NCCc2ncc(C(F)(F)F)cc2Cl)cc(Cl)n1 [Compound S-2] | ≥ 50% | ≥ 50% | –
COc1ccc(-n2ncc(C(=O)NCCc3ncc(C(F)(F)F)cc3Cl)c2C)cc1 [Compound J-8] | – | ≥ 50% | –
O=C(NCCc1ncc(C(F)(F)F)cc1Cl)c1ccc(-c2ccccn2)s1 [Compound C-6] | ≥ 50% | – | –

SMILES | pest or weed control at 330 ppm (Alternaria brassicae) | pest or weed control at 330 ppm (Pyrenophora teres) | pest or weed control at 330 ppm (Botrytis cinerea)
O=C(NCCc1ncc(C(F)(F)F)cc1Cl)c1cc(-c2cccc(Cl)c2)oc1C(F)(F)F [Compound B-9] | ≥ 50% | – | –
Cn1cc(C(=O)N(CCc2ncc(C(F)(F)F)cc2Cl)C2CC2)c(C(F)(F)F)n1 [Compound J-23] | – | ≥ 50% | –
CC(C)ON=CCc1cnc(CCNC(=O)c2cn(C)nc2C(F)F)c(Cl)c1 [Compound J-38] | ≥ 50% | – | –
Cn1cc(C(=O)NCCc2ncc(C(F)(F)F)cc2Cl)c(C(F)(F)F)n1 [Compound J-54] | – | ≥ 50% | –
Cc1nn(-c2ccccc2)nc1C(=O)NCCc1ncc(C(F)(F)F)cc1Cl [Compound O-1] | ≥ 50% | – | –
O=C(c1ccoc1I)N(CCc1ncc(C(F)(F)F)cc1Cl)C1CC1 [Compound B-15] | – | ≥ 50% | –
Cc1nc(C(F)(F)F)ccc1C(=O)NCCc1ncc(C(F)(F)F)cc1Cl [Compound R-15] | ≥ 50% | ≥ 50% | –
Cc1c(C(=O)NCCc2ncc(C(F)(F)F)cc2Cl)cnn1-c1ccc(F)cc1 [Compound J-7] | – | ≥ 50% | –
Cc1cc(C(=O)NCCc2nc(C)c(Cl)cc2Cl)c(C)o1 [Compound B-16] | ≥ 50% | ≥ 50% | –
O=C(NCCc1ncc(C(F)(F)F)cc1Cl)c1ccoc1 [Compound B-3] | – | ≥ 50% | –
O=C(NCCc1ncc(C(F)(F)F)cc1Cl)c1cnn(-c2ccc([N+](=O)[O-])cc2)c1C(F)(F)F [Compound J-13] | ≥ 50% | – | –
Cc1ccoc1C(=O)NCCc1ncc(C(F)(F)F)cc1Cl [Compound A-3] | ≥ 50% | – | –
Cn1cc(C(=O)NCCc2ccc(C(F)(F)F)c(Cl)n2)c(C(F)(F)F)n1 [Compound J-24] | ≥ 50% | ≥ 50% | –
O=C(NCCc1ncc(C(F)(F)F)cc1Cl)c1ncoc1-c1ccccc1 [Compound G-1] | ≥ 50% | ≥ 50% | –
O=C(NCCc1ncc(C(F)(F)F)cc1Cl)c1ncc(C(F)(F)F)cc1Cl [Compound Q-1] | ≥ 50% | – | –
Cc1nn(C)c(F)c1C(=O)N(CCc1ncc(C(F)(F)F)cc1Cl)C1CC1 [Compound J-52] | ≥ 50% | ≥ 50% | –
Cc1nnsc1C(=O)NCCc1ncc(C(F)(F)F)cc1Cl [Compound P-1] | – | ≥ 50% | –
Cc1noc(C)c1C(=O)NCCc1ncc(C(F)(F)F)cc1Cl [Compound M-2] | ≥ 50% | – | –

Reference: patent US7754741B2, “Pyridine derivatives as fungicidal compounds” (Bayer Cropscience S.A., priority 2003, dated 2010)
